# Measurements published in patent publication US8853281B2, “Cysteine protease inhibitors” (Medivir UK Ltd, priority 2008, dated 2014).
# Tests used:
# Format in all cases: biochemical
# human cathepsin S = biological target: T1, human cathepsin S (Homo sapiens, UniProt P25774); experiment: Cathepsin S Ki determination (boc-Val-Leu-Lys-AMC fluorescent substrate); settings: baculovirus-expressed human cathepsin S 2 nM, pH 6.5, competitive inhibition fit; read-out: Ki Cat. S
# T1 construct: made in house; host or cells: baculovirus expression system
# Protocol: Cathepsin S Ki Determination
# The assay uses baculovirus-expressed human cathepsin S and the boc-Val-Leu-Lys-AMC fluorescent substrate available from Bachem in a 384 well plate format, in which 7 test compounds can be tested in parallel with a positive control comprising a known cathepsin S inhibitor comparator.
# 280 μl/well of 12.5% DMSO are added to rows B-H of two columns of a 96 deep well polypropylene plate. 70 μl/well of substrate is added to row A. 2×250 μl/well of assay buffer (100 mM Na phosphate, 100 mM NaCl, pH 6.5) is added to row A, mixed, and double diluted down the plate to row H.
# 100 μl/well of assay buffer is added to columns 2-5 and 7-12 of 4 rows of a 96 well V bottom polypropylene plate. 200 μl/well of assay buffer is added to columns 1 and 6.
# The first test compound prepared in DMSO is added to column 1 of the top row, typically at a volume to provide between 10 and 30 times the initially determined rough Ki. The rough Ki is calculated from a preliminary run in which 10 μl/well of 1 mM boc-VLK-AMC ( 1/10 dilution of 10 mM stock in DMSO diluted into assay buffer) is dispensed to rows B to H and 20 μl/well to row A of a 96 well Microfluor™ plate. 2 μl of each 10 mM test compound is added to a separate well on row A, columns 1-10. Add 90 μl assay buffer containing 1 mM DTT and 2 nM cathepsin S to each well of rows B-H and 180 μl to row A. Mix row A using a multichannel pipette and double dilute to row G. Mix row H and read in the fluorescent spectrophotometer. The readings are Prism data fitted to the competitive inhibition equation, setting S=100 μM and KM=100 μM to obtain an estimate of the Ki, up to a maximum of 100 μM.
# The second test compound is added to column 6 of the top row, the third to column 1 of the second row etc. Add 1 μl of comparator to column 6 of the bottom row. Mix column 1 and double dilute to column 5. Mix column 6 and double dilute to column 10.
# Using an 8-channel multistepping pipette set to 5×10 μl, distribute 10 μl/well of substrate to the 384 well assay plate. Distribute the first column of the substrate dilution plate to all columns of the assay plate starting at row A. The tip spacing of the multichannel pipette will correctly skip alternate rows. Distribute the second column to all columns starting at row B.
# Using a 12-channel multistepping pipette set to 4×10 μl, distribute 10 μl/well of inhibitor to the 384 well assay plate. Distribute the first row of the inhibitor dilution plate to alternate rows of the assay plate starting at A1. The tip spacing of the multichannel pipette will correctly skip alternate columns. Similarly, distribute the second, third and fourth rows to alternate rows and columns starting at A2, B1 and B2 respectively.
# Mix 20 ml assay buffer and 20 μl 1M DTT. Add sufficient cathepsin S to give 2 nM final concentration.
# Using the a distributor such as a Multidrop 384, add 30 μl/well to all wells of the assay plate and read in fluorescent spectrophotomoter such as an Ascent.
# Fluorescent readings, (excitation and emission wavelengths 390 nm and 460 nm respectively, set using bandpass filters) reflecting the extent of enzyme cleavage of the fluorescent substrate, […] the inhibitor, are linear rate fitted for each well.
# Fitted rates for all wells for each inhibitor are fitted to the competitive inhibition equation using SigmaPlot 2000 to determine V, Km and Ki values.
# (§1) Potential inhibitors are screened using the above assay with variable concentrations of test compound. Reactions were initiated by addition of enzyme to buffered solutions of substrate and inhibitor. Ki values were calculated according to equation 1.
# (§2) [formula] where v0 is the velocity of the reaction, V is the maximal velocity, S is the concentration of substrate with Michaelis constant of KM, and I is the concentration of inhibitor.
# cathepsin K = biological target: T2, cathepsin K (Homo sapiens, UniProt P43235); experiment: Determination of cathepsin K proteolytic catalytic activity (H-D-Ala-Leu-Lys-AMC fluorogenic substrate); settings: human recombinant enzyme 5 nM, ambient temperature; read-out: Ki Cat. K
# T2 construct: made in house; host or cells: not fixed: E coli, Pichia or Baculovirus systems named as options
# T2 sequence (P43235 115-329): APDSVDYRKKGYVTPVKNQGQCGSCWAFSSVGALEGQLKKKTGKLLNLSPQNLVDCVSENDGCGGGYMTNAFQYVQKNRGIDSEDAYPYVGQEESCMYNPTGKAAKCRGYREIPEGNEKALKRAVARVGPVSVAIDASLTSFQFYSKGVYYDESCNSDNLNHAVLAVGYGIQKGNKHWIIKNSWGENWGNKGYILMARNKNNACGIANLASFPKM
# Protocol: Determination of Cathepsin K Proteolytic Catalytic Activity
# Convenient assays for cathepsin K are carried out using human recombinant enzyme, such as that described in PDB.
# DE Homo sapiens cathepsin K (pycnodysostosis), mRNA (cDNA clone MGC:23107
# The recombinant cathepsin K can be expressed in a variety of commercially available expression systems including E coli, Pichia and Baculovirus systems. The purified enzyme is activated by removal of the prosequence by conventional methods.
# Standard assay conditions for the determination of kinetic constants used a fluorogenic peptide substrate, typically H-D-Ala-Leu-Lys-AMC, and were determined in either 100 mM Mes/Tris, pH 7.0 containing 1 mM EDTA and 10 mM 2-mercaptoethanol or 100 mMNa phosphate, imM EDTA, 0.1% PEG4000 pH 6.5 or 100 mM Na acetate, pH 5.5 containing 5 mM EDTA and 20 mM cysteine, in each case optionally with […] as stabiliser. The enzyme concentration used was 5 nM. The stock substrate solution was prepared at 10 mM in DMSO. Screens were carried out at a fixed substrate concentration of 60 μM and detailed kinetic studies with doubling dilutions of substrate from 250 μM. The total DMSO concentration in the assay was kept below 3%. All assays were conducted at ambient temperature. Product fluorescence (excitation at 390 nm, emission at 460 nm) was monitored with a Labsystems Fluoroskan Ascent fluorescent plate reader. Product progress curves were generated over 15 minutes following generation of AMC product.
# as §1, §2
# human cathepsin L = human cathepsin L (Homo sapiens, UniProt P07711); experiment: Cathepsin L Ki (H-D-Val-Leu-Lys-AMC substrate); settings: human cathepsin L 5 nM, sodium acetate pH 5.5; read-out: Ki Cat. L
# Protocol: The procedure above with the following amendments is used for the determination of Ki for cathepsin L.
# The enzyme is commercially available human cathepsin L (for example Calbiochem). The substrate is H-D-Val-Leu-Lys-AMC available from Bahcem. The assay buffer is 100 mM sodium acetate 1 mM EDTA, pH5.5) The DMSO stock (10 mM in 100% DMSO) is diluted to 10% in assay buffer. Enzyme is prepared at 5 nM concentration in assay buffer plus 1 mM dithiothreitol just before use. 2 ul of 10 mM inhibitor made up in 100% DMSO is dispensed into row A. 10 μl of 50 μM substrate (= 1/200 dilution of 10 mM stock in DMSO, diluted in assay buffer).
# as §1, §2
# Chain of human cathepsin L (P07711 114-333): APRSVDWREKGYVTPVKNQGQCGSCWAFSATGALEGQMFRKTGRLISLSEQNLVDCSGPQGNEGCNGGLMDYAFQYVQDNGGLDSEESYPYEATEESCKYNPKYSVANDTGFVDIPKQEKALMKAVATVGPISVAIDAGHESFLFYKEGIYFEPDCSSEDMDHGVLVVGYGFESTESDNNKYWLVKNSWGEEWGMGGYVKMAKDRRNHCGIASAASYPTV
# T1 sequence (P25774 115-331): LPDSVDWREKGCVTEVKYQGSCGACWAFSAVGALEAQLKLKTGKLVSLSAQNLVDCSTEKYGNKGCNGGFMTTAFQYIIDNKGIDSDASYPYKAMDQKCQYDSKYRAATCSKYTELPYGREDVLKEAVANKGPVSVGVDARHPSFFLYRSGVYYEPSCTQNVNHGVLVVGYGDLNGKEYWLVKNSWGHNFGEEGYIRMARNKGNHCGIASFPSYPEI
SMILES,Ki (human cathepsin S) [nM],Ki (cathepsin K) [nM],Ki (human cathepsin L) [µM]
"COC1CC(NC(=O)C(CC2(C)CCC2)NC(=O)N2CCOCC2)(C(=O)C(=O)NC2CC2)C1 (single isomer, unassigned) [Example 122]",3.9,1000,3.8
Cn1ccc(NC(=O)C(=O)C2(NC(=O)[C@H](CC3(C)CCCC3)NC(=O)N3CCOCC3)CCC2)n1 [Example 6],0.19,460,0.6
CNC(=O)C(=O)C1(NC(=O)[C@H](CC(C)(C)C)NC(=O)c2ccc(NS(=O)(=O)c3ccccc3)cc2)CCC1 [Example 75],0.59,310,14
Cn1ccc(NC(=O)C(=O)C2(NC(=O)[C@H](CC3(C)CCCC3)NC(=O)C3CC3)CC(F)C2)n1 (stereo partly drawn) [Example 60],0.24,360,1.7
CC1(C[C@H](NC(=O)c2ccoc2)C(=O)NC2(C(=O)C(=O)NC3CC3)CC(F)(F)C2)CCCC1 [Example 27],0.79,2300,12
CC1(C[C@H](NC(=O)N2CCOCC2)C(=O)NC2(C(=O)C(=O)NCCCCl)CCC2)CCCC1 [Example 35],2,3500,6.3
CC1(C[C@H](NC(=O)N2CCOCC2)C(=O)NC2(C(=O)C(=O)NC3CC3)CCC2)CCCC1 [Example 2],2.3,3500,7.1
Cn1ccc(NC(=O)C(=O)C2(NC(=O)[C@H](CC3CCCCC3)NC(=O)N3CCOCC3)CC(F)(F)C2)n1 [Example 111],0.65,3600,0.2
"Cn1ccc(NC(=O)C(=O)[C@]2(NC(=O)[C@H](CC3(C)CCCC3)NC(=O)N3CCCC3)C[C@H](F)C2)n1 [Example 123, Pyrrolidine-1-carboxylic Acid [1-[3-fluoro-1-(1-methyl-1H-pyrazol-3-ylaminooxalyl)-cyclobutylcarbamoyl]-2-(1-methyl-cyclopentyl)-ethyl]-amide]",0.35,180,1.5
"O=C(NC1CC1)C(=O)C1(NC(=O)[C@H](CC2(F)CCCC2)NC(=O)c2ccc(O)c(F)c2)CC(F)(F)C1 [Example 50, N-[1-(1-Cyclopropylaminooxalyl-3,3-difluoro-cyclobutylcarbamoyl)-2-(1-fluoro-cyclopentyl)-ethyl]-3-fluoro-4-hydroxy-benzamide]",1,2400,3.1
